Measured values from publication PMC11078216, “Discovery of potent and selective activity-based probes (ABPs) for the deubiquitinating enzyme USP30” (RSC Chemical Biology, 2024).

Target: T1, CTSZ (Homo sapiens, UniProt Q9UBR2)
T1 construct: endogenous in cells; host or cells: HEK293T
Experiment: ABPP chemical proteomics (LC-MS/MS) in HEK293T cells
Format: cell-based
Protocol: To explore the selectivity of IMP-2587 and IMP-2586 across the whole proteome, we performed quantitative activity-based protein profiling (ABPP) in HEK293T cells following treatment with IMP-2587 or IMP-2586 (Fig. 3a). After ABP incubation, cells were lysed, and probe-labelled proteins were ligated to biotinylated capture reagents.[27] […] USP30 was outcompeted by corresponding parent inhibitors for each ABP (Fig. 5b and d and Tables S3 and S5, ESI ^†), confirming the high potency and rapid engagement of IMP-2587 and IMP-2586 in cells. […] DESI1 and DESI2 are small ubiquitin-related modifier (SUMO) proteases,[3,29–32] and IMP-2587 and IMP-2586 may offer a starting point for future development of DESI ABPs. […]
The cells were washed with PBS and lysed with lysis buffer (50 μL (1% (v/v) Triton X-100, 0.1% (w/v) sodium dodecyl sulfate (SDS), EDTA-free complete protease inhibitor cocktail (1×, Roche) in PBS on ice for 10 min. The lysates were scraped and transferred to corresponding Lo-Bind Eppendorfs. Each lysate was sonicated for 1 minute, and the samples centrifuges at 5,000 x g at 4 °C for 5 minutes to pellet insoluble cellular debris. The supernatant was collected, and protein concentration was determined using the DC Protein Assay (Bio-Rad) as per manufacturer’s instructions, and normalised to lowest concentrated sample (e.g. 1 mg/mL, using lysis buffer). […]

T1 sequence (Q9UBR2 62-303): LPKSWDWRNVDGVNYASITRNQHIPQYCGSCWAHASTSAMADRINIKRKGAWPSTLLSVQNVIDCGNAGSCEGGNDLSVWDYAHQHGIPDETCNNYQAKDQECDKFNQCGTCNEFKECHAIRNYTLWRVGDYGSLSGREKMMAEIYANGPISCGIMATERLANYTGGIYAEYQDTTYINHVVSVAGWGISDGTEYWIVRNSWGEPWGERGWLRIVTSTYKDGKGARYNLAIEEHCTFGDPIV

| Compound | Difference (log2 fold change of enrichment) (compound 1 out-competition with IMP-2587 labelling, HEK293T (Table S3, Fig.5b)) | Difference (log2 fold change of enrichment) (IMP-2587 labelling vs DMSO, 30 nM, 10 min, HEK293T (Table S2, Fig.5a)) |
| --- | --- | --- |
| N#CN1CC[C@H](CC(=O)Nc2cc(-c3cccc(Cl)c3)no2)C1 [compound 1, reference compound] | -2.01 |  |
| C#Cc1cccc(-c2cc(NC(=O)CC3CCN(C#N)C3)on2)c1 (centres unmarked) [IMP-2587] |  | 2.29 |
